Source: the NIST ThermoML archive (doi:10.1016/j.jct.2013.01.012)

Assays:
[1] = mn = molality of the nth substance listed, in mol/kg; details: 101 kPa, Liquid; for speed of sound: Sing-around technique in a fixed-path interferometer; for mass density: Vibrating tube method
[2] = refractive index (Na D-line) (dimensionless); mn = molality of the nth substance listed, in mol/kg; details: 101 kPa, Liquid, Standard Abbe refractometry

O=P([O-])(O)O.[Li+] [lithium dihydrogen phosphate] + O
Details	mass density, 298.15 K [kg/m3]	mass density, 303.15 K [kg/m3]	mass density, 308.15 K [kg/m3]	refractive index, 298.15 K	refractive index, 303.15 K	refractive index, 308.15 K	speed of sound, 298.15 K [m/s]	speed of sound, 303.15 K [m/s]	speed of sound, 308.15 K [m/s]
[1], m1 = 0.1	1004.55	1003.21	1001.59	–	–	–	1506.5	1518.5	1528.8
[1], m1 = 0.3	1018.97	1017.71	1016.05	–	–	–	1525.5	1536.8	1546.5
[1], m1 = 0.5	1033.8	1032.57	1031.29	–	–	–	1544.1	1555	1564.5
[1], m1 = 0.7	1048.96	1048.1	1046.58	–	–	–	1569.2	1573.7	1582.6
[1], m1 = 0.9	1064.91	1063.79	1055.48	–	–	–	1582.6	1593	1593.1
[2], m1 = 0.1	–	–	–	1.3342	1.3332	1.3327	–	–	–
[2], m1 = 0.3	–	–	–	1.3365	1.3363	1.3355	–	–	–
[2], m1 = 0.5	–	–	–	1.3394	1.339	1.3387	–	–	–
[2], m1 = 0.7	–	–	–	1.3421	1.3418	1.3414	–	–	–
[2], m1 = 0.9	–	–	–	1.3452	1.3448	1.3444	–	–	–

O=P([O-])([O-])[O-].[K+].[K+].[K+] [tripotassium phosphate] + O
Details	mass density, 298.15 K [kg/m3]	mass density, 303.15 K [kg/m3]	mass density, 308.15 K [kg/m3]	refractive index, 298.15 K	refractive index, 303.15 K	refractive index, 308.15 K	speed of sound, 298.15 K [m/s]	speed of sound, 303.15 K [m/s]	speed of sound, 308.15 K [m/s]
[1], m1 = 0.1	1017.14	1015.62	1013.92	–	–	–	1518.2	1529.8	1539.7
[1], m1 = 0.3	1057.82	1056.83	1054.87	–	–	–	1559.7	1570.2	1578.9
[1], m1 = 0.5	1101.23	1100.46	1098.72	–	–	–	1603	1616.1	1622.8
[1], m1 = 0.7	1145.91	1145.57	1144.26	–	–	–	1658.8	1666.7	1671.9
[1], m1 = 0.9	1191.53	1191.62	1190.09	–	–	–	1716.6	1723.7	1725.1
[2], m1 = 0.1	–	–	–	1.3365	1.3357	1.3351	–	–	–
[2], m1 = 0.3	–	–	–	1.344	1.3435	1.3426	–	–	–
[2], m1 = 0.5	–	–	–	1.3517	1.351	1.3502	–	–	–
[2], m1 = 0.7	–	–	–	1.3595	1.3588	1.3581	–	–	–
[2], m1 = 0.9	–	–	–	1.3671	1.3667	1.3659	–	–	–
